Measurements as given in patent US8603498B2, “Lipo-phosphated or lipo-sulphated compound, compositions comprising it and topical uses thereof” (Sederma, S.A.S., priority 2010, dated 2013).

Legend:
cholesterol [1] = assay: Cholesterol in keratinocytes by HPTLC; type: cell-based, human; details: 5 ppm, 7 days
Description: (§1) The same protocol was followed as before but a larger quantity of keratinocyes was used on this occasion because of the limits of detection of the apparatus. After 7 days, the layers were rinsed, lipids extracted using solvents before being deposited on a thin-layer chromatography plate using an automated device. After migration and detection, the bands were analysed and quantified based on a range of standard lipids deposited on the same plate.

loricrin = assay: Production of loricrin in cultured human keratinocytes by immunolabelling; type: cell-based; details: for Loricrin Change (%): vs control
Description: (§2) Protocol: Human keratinocytes were cultivated up to confluence. The cells were then placed in contact/not contact with the solubilized Lipo-Phosphomalate for 21 days. At the end of this contact period, labelling common to both filaggrin and profilaggrin was carried out on cell layers using specific antibodies. Labelling intensity was analysed on photos (n=15 photos) and compared to that obtained for the negative control and for vitamin D3 at 10^−7M used as a positive differentiation control.
Loricrine is one of the key elements in the formation of the corneal envelope. It is attached to involucrin (see 1.1) by transglutaminase, which forms rigid, insoluble structures. The method described in 1.2. was used.

cholesterol [2] = assay: Cholesterol in keratinocytes by immunolabelling (IMF); type: cell-based, human; details: 5 ppm, 7 days
Description: Cultured human keratinocytes at confluence were placed in contact with the Lipo-Phosphomalate in a medium slightly enriched with calcium to promote the establishment of intercellular junctions and thus improve the anchorage of differentiated cells to the underlying cells. A negative control was carried out in the same medium. After a 7-day contact period, the layer was labeled with a cholesterol-specific fluorescent. The intensity of the labeling was analysed on the photos and compared to that obtained with the negative control (Table 6).

transglutaminase-1 gene = assay: DNA-Array study, transglutaminase-1 gene; type: cell-based; details: in the presence of solubilised Lipo-Phosphomalate
Text: In addition, a DNA-Array study has shown that the transglutaminase-1 and involucrin genes are over-expressed in the network with other genes essential for the formation of the corinfied layer in the presence of solubilised Lipo-Phosphomalate.

transglutaminase = assay: Transglutaminase activity in keratinocytes by enzymology (fluorescent substrate); type: cell-based, human; details: 5 ppm, 14 days; for Enzymology % Change: vs control
Text: At the end of the 14-day contact period, the cells were placed in contact with a fluorescent synthetic transglutaminase substrate. Metabolisation of the substrate via transglutaminase will allow the fixation in the intracellular protein matrix. After rinsing, the non fixed fluorescent substrate is eliminated and the fluorescence fixed in the cells by the enzyme is quantified.

matriptase = assay: Production of matriptase in cultured human keratinocytes by immunolabelling; type: cell-based; details: for Matriptase Change (%): vs control
tyrosinase = biological target: T1, tyrosinase (Homo sapiens, UniProt P14679); assay: Tyrosinase activity of human melanocytes; type: cell-based; details: 5 days
T1 construct: endogenous in cells; host or cells: human melanocytes (homogenates)
T1 sequence (P14679 19-529): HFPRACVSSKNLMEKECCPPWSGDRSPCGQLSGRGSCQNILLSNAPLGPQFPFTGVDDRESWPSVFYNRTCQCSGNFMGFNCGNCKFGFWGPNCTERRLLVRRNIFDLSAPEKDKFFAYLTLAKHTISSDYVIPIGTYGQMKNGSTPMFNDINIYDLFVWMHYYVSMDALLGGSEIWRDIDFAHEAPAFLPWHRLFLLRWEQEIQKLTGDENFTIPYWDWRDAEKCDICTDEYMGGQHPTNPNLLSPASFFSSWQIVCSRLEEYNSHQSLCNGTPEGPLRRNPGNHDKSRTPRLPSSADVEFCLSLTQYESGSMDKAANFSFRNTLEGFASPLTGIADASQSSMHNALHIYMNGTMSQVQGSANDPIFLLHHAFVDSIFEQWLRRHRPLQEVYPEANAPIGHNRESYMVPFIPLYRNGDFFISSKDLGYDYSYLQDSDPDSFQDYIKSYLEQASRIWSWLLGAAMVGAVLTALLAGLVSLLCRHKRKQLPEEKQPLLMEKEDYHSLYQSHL
Description: Human melanocyte are sowed and contacted with the […] for 5 days. At the end of the incubation period, the residual tyrosinase activity was measured in cell homogenates.

[3] = system: non hydroxylated ceramides; assay: Non hydroxylated ceramides in keratinocytes by HPTLC; type: cell-based, human; details: 5 ppm
Description: as §1
At the same time as the HPTLC cholesterol assay, an assay of hydroxylated and non-hydroxylated ceramides was carried out on the extracts.

fibroblasts = assay: Lipid production in fibroblasts; type: cell-based
Text: This lipid production by the Lipo-Phosphomalate was not observed in fibroblasts or melanocytes. It is therefore a specific effect related to the metabolism of keratinocyte during its differentiation.

filaggrin/profilaggrin = assay: Filaggrin synthesis on human keratinocytes (immunofluorescent method); type: cell-based; details: for Filaggrin/profilaggrin (UFA/10^6 cell.): 21 days contact; for Filaggrin/profilaggrin Change (%): vs control
Description: as §2

laminin = assay: Laminin synthesis by human keratinocytes (ELISA); type: cell-based; details: for laminin ng/10^e6cells: 3 days, supernatant
Description: Human keratinocytes are humains were cultivated in MW24 plates for 24 h. Cells were contacted or not with the Lipo-Phosphomalate for 3 days. Culture surpernatants were taken and an assay of the quantity of laminin was achieved. TGF-β1 was used as the positive control.

caspase-14 = assay: Production of caspase-14 in cultured human keratinocytes by immunolabelling; type: cell-based; details: for Caspase Change (%): vs control
triglycerides = assay: Synthesis of intracellular triglycerides in 3T3-L1 cells (enzymatic method); type: cell-based
Description: 3T3-L1 cells were cultivated until sub-confluence, then induced to differentiate with the appropriate mixture with or without the Lipo-Phosphomalate at different concentrations. After 3 days of incubation, the differenciation mixture is replaced by a new maintaining culture medium, in the presence or not of the Lipo-Phosphomalate. After 3 days of incubation, the quantity of intracellular triglycerides is measured by enzymatic method.

hyaluronic acid = assay: Synthesis of hyaluronic acid by human keratinocytes (ELISA); type: cell-based; details: for hyaluronic acid ng/10^e6 cells: 3 days, supernatant
Description: Protocol: Human keratinocytes are humains were cultivated in MW24 plates for 24 h. Cells were contacted or not with the Lipo-Phosphomalate for 3 days. Culture surpernatants were taken and an assay of the quantity of hyaluronic acid was achieved. Retinoic acid was used as the positive control.

[4] = 5 ppm, listed as Solubilised Lipo-Phosphomalate
[5] = 5 ppm, listed as solubilised Lipo-Phosphomalate

CCCCCCCCCCCCCCOC(=O)CC(OP(=O)(O)O)C(=O)O (centres unmarked) [Lipo-Phosphomalate, 2-phosphate-succinic-acid-4-tetradecyle ester]
HPTLC Cholesterol (pg/10^6 cell.) (cholesterol [1]): 30.89 ± 7.20 pg/10^6 cell. | HPTLC Cholesterol % Change (cholesterol [1]; vs control): +53%; p < 0.05 | Loricrin (UFA/10^6 cell.) (loricrin; 1.5 ppm): 1.69 ± 0.67 UFA/10^6 cell. | Loricrin Change (%) (loricrin; 1.5 ppm): +131%; p < 0.01 | Loricrin (UFA/10^6 cell.) (loricrin; 5 ppm): 3.84 ± 1.19 UFA/10^6 cell. | Loricrin Change (%) (loricrin; 5 ppm): +426%; p < 0.01 | IMF Cholesterol (UFA/10^6 cell.) (cholesterol [2]): 4.98 ± 2.59 UFA/10^6 cell. | IMF Cholesterol % Change (cholesterol [2]; vs control): +107%; p < 0.04 | transglutaminase-1 gene expression (DNA-Array) (transglutaminase-1 gene): over-expressed | Enzymology Transglutaminase (UFA/10^6 cell.) (transglutaminase): 516 ± 63 UFA/10^6 cell. | Enzymology % Change (transglutaminase; listed as Solubilised Lipo-Phosphomalate): +124%; p < 0.01 | Enzymology % Change (transglutaminase; listed as solubilised Lipo-Phosphomalate): ~+100% | Matriptase (UFA/10^6 cell.) (matriptase; 1.5 ppm): 2.27 ± 0.47 UFA/10^6 cell. | Matriptase Change (%) (matriptase; 1.5 ppm): +125%; p < 0.01 | Matriptase (UFA/10^6 cell.) (matriptase; 5 ppm): 4.08 ± 1.56 UFA/10^6 cell. | Matriptase Change (%) (matriptase; [4]): +304%; p < 0.01 | Matriptase Change (%) (matriptase; [5]): +304% | tyrosinase activity Variation (%) (tyrosinase; 10 ppm): −21%; p < 0.01 | tyrosinase activity Variation (%) (tyrosinase; 12 ppm): −28%; p < 0.01 | tyrosinase activity Variation (%) (tyrosinase; 15 ppm): −31%; p < 0.01 | Non hydroxylated Ceramides (pg/10^6 cell.) ([3]; 7 days): 8.41 ± 1.30 pg/10^6 cell. | Non hydroxylated Ceramides % Change ([3]; vs control): +256%; p < 0.01 | lipid production (cholesterol, ceramides) (fibroblasts): not observed | Filaggrin/profilaggrin (UFA/10^6 cell.) (filaggrin/profilaggrin; 1.5 ppm): 3.04 ± 1.21 UFA/10^6 cell. | Filaggrin/profilaggrin Change (%) (filaggrin/profilaggrin; 1.5 ppm): +119%; p < 0.01 | Filaggrin/profilaggrin (UFA/10^6 cell.) (filaggrin/profilaggrin; 5 ppm): 5.00 ± 1.58 UFA/10^6 cell. | Filaggrin/profilaggrin Change (%) (filaggrin/profilaggrin; [4]): +259%; p < 0.01 | Filaggrin/profilaggrin Change (%) (filaggrin/profilaggrin; [5]): +259% | laminin % Variation/control (laminin; 1.67 ppm): +64%; p < 0.01 | laminin ng/10^e6cells (laminin; 1.67 ppm): 190 +/− 11 ng/10^e6cells | laminin % Variation/control (laminin; 5 ppm): +187%; p < 0.01 | laminin ng/10^e6cells (laminin; 5 ppm): 333 +/− 10 ng/10^e6cells | laminin % Variation/control (laminin; 8.33 ppm): +196%; p < 0.01 | laminin ng/10^e6cells (laminin; 8.33 ppm): 343 +/− 10 ng/10^e6cells | Caspase (UFA/10^6 cell.) (caspase-14; 1.5 ppm): 1.13 ± 0.44 UFA/10^6 cell. | Caspase Change (%) (caspase-14; 1.5 ppm): +121%; p < 0.01 | Caspase (UFA/10^6 cell.) (caspase-14; 5 ppm): 1.68 ± 0.64 UFA/10^6 cell. | Caspase Change (%) (caspase-14; [4]): +229%; p < 0.01 | Caspase Change (%) (caspase-14; [5]): +229% | intracellular triglycerides % Change/control (triglycerides; 10 ppm): +112%; p < 0.01 | intracellular triglycerides % Change/control (triglycerides; 15 ppm): +210%; p < 0.01 | hyaluronic acid % Change/control (hyaluronic acid; 1.67 ppm): +16%; p < 0.01 | hyaluronic acid ng/10^e6 cells (hyaluronic acid; 1.67 ppm): 1015 +/− 46 ng/10^e6 cells | hyaluronic acid % Change/control (hyaluronic acid; 5 ppm): +57%; p < 0.01 | hyaluronic acid ng/10^e6 cells (hyaluronic acid; 5 ppm): 1374 +/− 50 ng/10^e6 cells | hyaluronic acid % Change/control (hyaluronic acid; 8.33 ppm): +69%; p < 0.01 | hyaluronic acid ng/10^e6 cells (hyaluronic acid; 8.33 ppm): 1480 +/− 51 ng/10^e6 cells
